Measured values from PubChem BioAssay AID1918944 (Molecular Pharmacology Branch, DTP, NCI, 2023).
Where “and” joins values, the source holds several entries; their conditions need not be identical. Equal values may be shown once.

Test system: 786-0 complex spheroid viability
Assay: Anticancer human tumor 786-0 cell line growth inhibition;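 note: spheroids exposed to agents for seven days before readout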
Conditions: for viability, T/C: stronger effect = lower value; active = viability on the fitted dose curve at most 10% of control; inactive = the rest
Method in brief: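 Multicellular complex spheroids of tumor cells with human endothelial cells (HUVEC) and mesenchymal stem cells; the LSD1 inhibitor iadademstat was combined with standard-of-care or investigational agents. Top concentration at or near clinical Cmax, half-log dilutions; final DMSO ≤0.25%.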

[1] = curve of first compound, second compound 0.1 µM
[2] = curve of first compound, second compound 0.316 µM
[3] = curve of first compound, second compound 1 µM
[4] = curve of first compound, second compound 3.16 µM
[5] = curve of first compound, second compound 10 µM
[6] = second compound 0.1 µM, first compound 0.0316 µM
[7] = second compound 0.1 µM, first compound 0.1 µM
[8] = second compound 0.316 µM, first compound 0.0316 µM
[9] = second compound 0.316 µM, first compound 0.1 µM
[10] = second compound 1 µM, first compound 0.0316 µM
[11] = second compound 1 µM, first compound 0.1 µM
[12] = second compound 3.16 µM, first compound 0.0316 µM
[13] = second compound 3.16 µM, first compound 0.1 µM
[14] = second compound 10 µM, first compound 0.0316 µM
[15] = second compound 10 µM, first compound 0.1 µM

O=C(c1cc(Cc2n[nH]c(=O)c3ccccc23)ccc1F)N1CCN(C(=O)C2CC2)CC1 + NC1CCC(NC2CC2c2ccccc2)CC1
8150 nM: IC50 [5]
> 10000 nM: IC50 [1] | IC50 [2] | IC50 [3] | IC50 [4]
inactive: viability, T/C [6] 114% | viability, T/C [7] 119% | viability, T/C (second compound 0.1 µM, first compound 0.316 µM) 111% | viability, T/C (second compound 0.1 µM, first compound 1 µM) 101% | viability, T/C (second compound 0.1 µM, first compound 3.16 µM) 83.1% | viability, T/C (second compound 0.1 µM, first compound 10 µM) 71.4% | viability, T/C [8] 119% | viability, T/C [9] 112% | viability, T/C (second compound 0.316 µM, first compound 0.316 µM) 115% | viability, T/C (second compound 0.316 µM, first compound 1 µM) 104% | viability, T/C (second compound 0.316 µM, first compound 3.16 µM) 87.1% | viability, T/C (second compound 0.316 µM, first compound 10 µM) 72.6% | viability, T/C [10] 115% | viability, T/C [11] 113% | viability, T/C (second compound 1 µM, first compound 0.316 µM) 104% | viability, T/C (second compound 1 µM, first compound 1 µM) 92.9% | viability, T/C (second compound 1 µM, first compound 3.16 µM) 76.6% | viability, T/C (second compound 1 µM, first compound 10 µM) 62.3% | viability, T/C [12] 99.3% | viability, T/C [13] 99.3% | viability, T/C (second compound 3.16 µM, first compound 0.316 µM) 100% | viability, T/C (second compound 3.16 µM, first compound 1 µM) 91.8% | viability, T/C (second compound 3.16 µM, first compound 3.16 µM) 79.3% | viability, T/C (second compound 3.16 µM, first compound 10 µM) 57.3% | viability, T/C [14] 79.8% | viability, T/C [15] 82.7% | viability, T/C (second compound 10 µM, first compound 0.316 µM) 88.4% | viability, T/C (second compound 10 µM, first compound 1 µM) 81.7% | viability, T/C (second compound 10 µM, first compound 3.16 µM) 67.2% | viability, T/C (second compound 10 µM, first compound 10 µM) 46.3%

CC(C)CC(NC(=O)C(Cc1ccccc1)NC(=O)c1cnccn1)B(O)O (configuration not stated) + NC1CCC(NC2CC2c2ccccc2)CC1
1.95 nM: IC50 [5]
inactive: viability, T/C (second compound 0.1 µM, first compound 0.000316 µM) 122% | viability, T/C (second compound 0.1 µM, first compound 0.001 µM) 114% | viability, T/C (second compound 0.1 µM, first compound 0.00316 µM) 42.6% | viability, T/C (second compound 0.316 µM, first compound 0.000316 µM) 115% | viability, T/C (second compound 0.316 µM, first compound 0.001 µM) 110% | viability, T/C (second compound 0.316 µM, first compound 0.00316 µM) 36.6% | viability, T/C (second compound 1 µM, first compound 0.000316 µM) 117% | viability, T/C (second compound 1 µM, first compound 0.001 µM) 113% | viability, T/C (second compound 1 µM, first compound 0.00316 µM) 35.9% | viability, T/C (second compound 3.16 µM, first compound 0.000316 µM) 106% | viability, T/C (second compound 3.16 µM, first compound 0.001 µM) 102% | viability, T/C (second compound 3.16 µM, first compound 0.00316 µM) 28.2% | viability, T/C (second compound 10 µM, first compound 0.000316 µM) 92.1% | viability, T/C (second compound 10 µM, first compound 0.001 µM) 86.1% | viability, T/C (second compound 10 µM, first compound 0.00316 µM) 24%
2.81 nM: IC50 [1]
2.56 nM: IC50 [2] | IC50 [3]
2.25 nM: IC50 [4]
active: viability, T/C (second compound 0.1 µM, first compound 0.01 µM) 2.11% | viability, T/C [6] 0.17% | viability, T/C [7] 0.14% | viability, T/C (second compound 0.316 µM, first compound 0.01 µM) 3.06% | viability, T/C [8] 0.46% | viability, T/C [9] 0.16% | viability, T/C (second compound 1 µM, first compound 0.01 µM) 6.05% | viability, T/C [10] 0.96% | viability, T/C [11] 0.23% | viability, T/C (second compound 3.16 µM, first compound 0.01 µM) 5.87% | viability, T/C [12] 0.76% | viability, T/C [13] 0.29% | viability, T/C (second compound 10 µM, first compound 0.01 µM) 3.66% | viability, T/C [14] 1.18% | viability, T/C [15] 0.23%

CCN(c1cc(-c2ccc(CN3CCOCC3)cc2)cc(C(=O)NCc2c(C)cc(C)[nH]c2=O)c1C)C1CCOCC1 + NC1CCC(NC2CC2c2ccccc2)CC1
> 3000 nM: IC50 [1] | IC50 [2] | IC50 [3] | IC50 [4] | IC50 [5]
inactive: viability, T/C (second compound 0.1 µM, first compound 0.00949 µM) 121% | viability, T/C (second compound 0.1 µM, first compound 0.03 µM) 122% | viability, T/C (second compound 0.1 µM, first compound 0.0949 µM) 117% | viability, T/C (second compound 0.1 µM, first compound 0.3 µM) 114% | viability, T/C (second compound 0.1 µM, first compound 0.949 µM) 114% | viability, T/C (second compound 0.1 µM, first compound 3 µM) 111% | viability, T/C (second compound 0.316 µM, first compound 0.00949 µM) 119% | viability, T/C (second compound 0.316 µM, first compound 0.03 µM) 118% | viability, T/C (second compound 0.316 µM, first compound 0.0949 µM) 114% | viability, T/C (second compound 0.316 µM, first compound 0.3 µM) 116% | viability, T/C (second compound 0.316 µM, first compound 0.949 µM) 109% | viability, T/C (second compound 0.316 µM, first compound 3 µM) 106% | viability, T/C (second compound 1 µM, first compound 0.00949 µM) 116% | viability, T/C (second compound 1 µM, first compound 0.03 µM) 114% | viability, T/C (second compound 1 µM, first compound 0.0949 µM) 115% | viability, T/C (second compound 1 µM, first compound 0.3 µM) 109% | viability, T/C (second compound 1 µM, first compound 0.949 µM) 105% | viability, T/C (second compound 1 µM, first compound 3 µM) 106% | viability, T/C (second compound 3.16 µM, first compound 0.00949 µM) 111% | viability, T/C (second compound 3.16 µM, first compound 0.03 µM) 105% | viability, T/C (second compound 3.16 µM, first compound 0.0949 µM) 109% | viability, T/C (second compound 3.16 µM, first compound 0.3 µM) 110% | viability, T/C (second compound 3.16 µM, first compound 0.949 µM) 97.2% | viability, T/C (second compound 3.16 µM, first compound 3 µM) 105% | viability, T/C (second compound 10 µM, first compound 0.00949 µM) 87.2% | viability, T/C (second compound 10 µM, first compound 0.03 µM) 90.2% | viability, T/C (second compound 10 µM, first compound 0.0949 µM) 91.2% | viability, T/C (second compound 10 µM, first compound 0.3 µM) 96.5% | viability, T/C (second compound 10 µM, first compound 0.949 µM) 88.3% | viability, T/C (second compound 10 µM, first compound 3 µM) 89%

NS(=O)(=O)OCC1CC(n2ccc3c(NC4CCc5ccccc54)ncnc32)CC1O (configuration not stated)
inactive: viability, T/C (compound 0.00949 µM) 99.2% and 89.2% | viability, T/C (compound 0.03 µM) 84.4% and 87.8% | viability, T/C (compound 0.0949 µM) 66.8% and 85.6% | viability, T/C (compound 0.3 µM) 23.5% and 34.7%
144 nM and 212 nM: IC50 (curve of compound)
6.08% and 15.5%: viability, T/C (compound 3 µM)
6.87% and 15.1%: viability, T/C (compound 0.949 µM)
